The structures appear in SMILES notation. Where only a bound is given, the exact number is not on record here.

The target of the test is Isocitrate dehydrogenase [NADP] cytoplasmic (Homo sapiens, UniProt O75874, R132H). Kind of test: Inhibition of IDH1 R132H mutant (unknown origin) using a-ketoglutarate as substrate by fluorescence biochemical assay.
Sequence of Isocitrate dehydrogenase [NADP] cytoplasmic (O75874 2-414 R132H limits assumed): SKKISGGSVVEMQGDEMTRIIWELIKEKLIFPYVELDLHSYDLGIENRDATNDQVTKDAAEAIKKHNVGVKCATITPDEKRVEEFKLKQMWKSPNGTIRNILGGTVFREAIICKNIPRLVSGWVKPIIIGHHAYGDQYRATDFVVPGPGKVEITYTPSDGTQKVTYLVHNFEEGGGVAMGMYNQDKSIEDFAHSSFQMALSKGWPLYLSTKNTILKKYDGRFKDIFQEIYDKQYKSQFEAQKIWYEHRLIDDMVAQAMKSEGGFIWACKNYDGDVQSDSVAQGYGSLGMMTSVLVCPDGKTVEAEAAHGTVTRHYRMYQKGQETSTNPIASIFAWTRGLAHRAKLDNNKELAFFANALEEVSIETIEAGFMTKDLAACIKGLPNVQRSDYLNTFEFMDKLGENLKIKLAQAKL

In the case of `C[C@H](Nc1nccc(N2C(=O)OC[C@]2(C)C2CC2)n1)c1ccc(CN2CCC(N)CC2)c(F)c1`, the 50% inhibitory concentration (IC50) amounted to 0.194 µM.

`C[C@H](Nc1nccc(N2C(=O)OC[C@]2(C)C2CC2)n1)c1ccc(CN2CCC(O)(C(F)(F)F)CC2)cc1F`: the IC50 is less than 0.0159 µM.

The record behind these values is ChEMBL document CHEMBL3352118, “Inhibitors of Mutant IDH for the Treatment of Cancer” (ACS Med Chem Lett, 2014).
